In test [1] the test system is DENV in BHK-21 and NIH3T3 cells. Conditions: cited from earlier work.
Test [2] has as its system sera of 24 SARS-positive patients. In kind it is binding, human.

Take CPFLKQNEPEDIDCW: in test [1], the “ADE of DENV” value was “blocked this ADE in a dose-dependent manner”. For LYQDVN [S597–602], in test [2], the “Immunoreactivity with sera” value was “immunoreactive with the tested sera of 24 SARS-positive patients”.

Source of the values: publication PMC7075522 (ACS infectious diseases, 2016).
